# According to patent publication US12187723B2 (BRISTOL-MYERS SQUIBB COMPANY, priority 2019, dated 2025):
# Target: T1, human TLR7 (Homo sapiens, UniProt Q9NYK1)
# T1 construct: host or cells: HEK-Blue cells
# T1 sequence (Q9NYK1 27-1049): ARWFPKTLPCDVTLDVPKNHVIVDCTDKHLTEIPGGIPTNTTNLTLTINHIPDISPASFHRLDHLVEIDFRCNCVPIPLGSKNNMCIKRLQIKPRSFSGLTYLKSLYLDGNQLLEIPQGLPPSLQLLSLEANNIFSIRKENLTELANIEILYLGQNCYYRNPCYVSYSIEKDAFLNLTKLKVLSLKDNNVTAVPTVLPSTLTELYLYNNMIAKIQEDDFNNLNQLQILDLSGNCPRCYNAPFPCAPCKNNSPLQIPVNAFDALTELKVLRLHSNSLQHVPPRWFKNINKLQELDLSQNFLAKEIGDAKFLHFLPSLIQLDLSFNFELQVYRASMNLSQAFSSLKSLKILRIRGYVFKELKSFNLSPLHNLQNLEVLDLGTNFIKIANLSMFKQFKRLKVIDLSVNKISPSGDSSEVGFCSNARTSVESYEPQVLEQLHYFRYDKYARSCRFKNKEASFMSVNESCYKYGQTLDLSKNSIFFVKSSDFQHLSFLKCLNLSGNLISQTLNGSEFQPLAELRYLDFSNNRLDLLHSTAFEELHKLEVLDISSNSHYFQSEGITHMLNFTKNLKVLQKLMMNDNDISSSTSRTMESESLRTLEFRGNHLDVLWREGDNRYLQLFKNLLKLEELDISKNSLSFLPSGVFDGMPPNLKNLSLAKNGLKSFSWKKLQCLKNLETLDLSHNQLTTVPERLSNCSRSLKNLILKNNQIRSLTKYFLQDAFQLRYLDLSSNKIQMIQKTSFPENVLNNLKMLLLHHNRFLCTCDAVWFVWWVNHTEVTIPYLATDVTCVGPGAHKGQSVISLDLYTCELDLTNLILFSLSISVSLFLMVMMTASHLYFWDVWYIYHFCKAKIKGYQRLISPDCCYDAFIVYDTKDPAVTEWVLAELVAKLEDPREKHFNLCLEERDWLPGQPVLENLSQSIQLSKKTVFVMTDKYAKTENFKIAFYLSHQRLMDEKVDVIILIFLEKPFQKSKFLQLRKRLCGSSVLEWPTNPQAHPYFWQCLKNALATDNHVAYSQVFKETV
# Assay: TLR7 inhibition reporter assay (HEK-Blue SEAP)
# Format: cell-based
# Settings: HEK-Blue cells overexpressing human TLR7, gardiquimod 7.5 μM, 22 hour incubation
# How it was run: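 Cells (15000/well for TLR7, 20,000 for TLR8) were treated with compounds over 0.05 nM-50 μM final. After 22 h at 37° C, 5% CO2, SEAP was measured with HEK-Blue Detection reagent; percent inhibition was taken as reduction of agonist-plus-DMSO signal relative to a known inhibitor.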
row,Compound,IC50 [nM]
1,"COc1cc(-c2cc3[nH]c(=O)n([C@H]4CC[C@@H](NCC(C)(C)C)CC4)c3cc2C(C)C)cn2ncnc12 [Example 197, 6-isopropyl-5-(8-methoxy-[1,2,4]triazolo[1,5-a]pyridin-6-yl)-1-((1s,4s)-4-(neopentylamino)cyclohexyl)-1,3-dihydro-2H-benzo[d]imidazol-2-one]",0.8
2,CCC(CC)CN[C@H]1CC[C@@H](n2c(=O)[nH]c3cc(-c4cn5ncnc5c(C)c4C)c(C(C)C)cc32)CC1 [Example 198],4.92
3,"CCCN(CCC)[C@H]1CC[C@@H](n2c(=O)[nH]c3cc(-c4cn5ncnc5c(C)c4C)c(C(C)C)cc32)CC1 [Example 199, 5-(7,8-dimethyl-[1,2,4]triazolo[1,5-a]pyridin-6-yl)-1-((1s,4s)-4-(dipropylamino)cyclohexyl)-6-isopropyl-1,3-dihydro-2H-benzo[d]imidazol-2-one]",5.03
4,"Cc1c(-c2cc3[nH]c(=O)n([C@H]4CC[C@@H](NCC5CCOCC5)CC4)c3cc2C(C)C)cn2ncnc2c1C [Example 200, 5-(7,8-dimethyl-[1,2,4]triazolo[1,5-a]pyridin-6-yl)-6-isopropyl-1-((1s,4s)-4-(((tetrahydro-2H-pyran-4-yl)methyl)amino)cyclohexyl)-1,3-dihydro-2H-benzo[d]imidazol-2-one]",9.02
5,"COc1cc(-c2cc3[nH]c(=O)n([C@H]4CC[C@H](NC5COC5)CC4)c3cc2C(C)C)cn2ncnc12 [Example 201, 6-isopropyl-5-(8-methoxy-[1,2,4]triazolo[1,5-a]pyridin-6-yl)-1-((1r,4r)-4-(oxetan-3-ylamino)cyclohexyl)-1,3-dihydro-2H-benzo[d]imidazol-2-one]",2.07
6,"COc1cc(-c2cc3[nH]c(=O)n([C@H]4CC[C@H](N(C)C)CC4)c3cc2C(C)C)cn2ncnc12 [Example 202, 1-((1r,4r)-4-(dimethylamino)cyclohexyl)-6-isopropyl-5-(8-methoxy-[1,2,4]triazolo[1,5-a]pyridin-6-yl)-1,3-dihydro-2H-benzo[d]imidazol-2-one]",3.51
7,"COc1cc(-c2cc3[nH]c(=O)n([C@H]4CC[C@H](NC(C)C)CC4)c3cc2C(C)C)cn2ncnc12 [Example 203, 6-isopropyl-1-((1r,4s)-4-(isopropylamino)cyclohexyl)-5-(8-methoxy-[1,2,4]triazolo[1,5-a]pyridin-6-yl)-1,3-dihydro-2H-benzo[d]imidazol-2-one]",4.72
8,"COc1cc(-c2cc3[nH]c(=O)n([C@H]4CC[C@H](NCC(C)C)CC4)c3cc2C(C)C)cn2ncnc12 [Example 204, 1-((1r,4s)-4-(isobutylamino)cyclohexyl)-6-isopropyl-5-(8-methoxy-[1,2,4]triazolo[1,5-a]pyridin-6-yl)-1,3-dihydro-2H-benzo[d]imidazol-2-one]",3.21
9,"COc1cc(-c2cc3[nH]c(=O)n([C@H]4CC[C@H](N(CC(C)C)CC(C)C)CC4)c3cc2C(C)C)cn2ncnc12 [Example 205, 1-((1r,4r)-4-(diisobutylamino)cyclohexyl)-6-isopropyl-5-(8-methoxy-[1,2,4]triazolo[1,5-a]pyridin-6-yl)-1,3-dihydro-2H-benzo[d]imidazol-2-one]",4.76
10,"COc1cc(-c2cc3[nH]c(=O)n([C@H]4CC[C@H](N(CC5CC5)CC5CC5)CC4)c3cc2C(C)C)cn2ncnc12 [Example 206, 1-((1r,4s)-4-(bis(cyclopropylmethyl)amino)cyclohexyl)-6-isopropyl-5-(8-methoxy-[1,2,4]triazolo[1,5-a]pyridin-6-yl)-1,3-dihydro-2H-benzo[d]imidazol-2-one]",1.3
11,"COc1cc(-c2cc3[nH]c(=O)n([C@H]4CC[C@H](NC5CCN(C(C)C)CC5)CC4)c3cc2C(C)C)cn2ncnc12 [Example 207, 6-isopropyl-1-((1r,4r)-4-((1-isopropylpiperidin-4-yl)amino)cyclohexyl)-5-(8-methoxy-[1,2,4]triazolo[1,5-a]pyridin-6-yl)-1,3-dihydro-2H-benzo[d]imidazol-2-one]",23.9
12,"CCc1cc2c(cc1-c1cc(OC)c3ncnn3c1)[nH]c(=O)n2[C@@H]1CCCN(CCC(C)(C)C)C1 [Example 208, (R)-1-(1-(3,3-dimethylbutyl)piperidin-3-yl)-6-ethyl-5-(8-methoxy-[1,2,4]triazolo[1,5-a]pyridin-6-yl)-1,3-dihydro-2H-benzo[d]imidazol-2-one]",6.52
13,"CCc1cc2c(cc1-c1cc(OC)c3ncnn3c1)[nH]c(=O)n2[C@@H]1CCCN(CC2CCCC2)C1 [Example 209, (R)-1-(1-(cyclopentylmethyl)piperidin-3-yl)-6-ethyl-5-(8-methoxy-[1,2,4]triazolo[1,5-a]pyridin-6-yl)-1,3-dihydro-2H-benzo[d]imidazol-2-one]",7.96
14,"COc1cc(-c2cc3[nH]c(=O)n([C@@H]4CCCN(CCC(C)(C)C)C4)c3cc2C(C)C)cn2ncnc12 [Example 210, (R)-1-(1-(3,3-dimethylbutyl)piperidin-3-yl)-6-isopropyl-5-(8-methoxy-[1,2,4]triazolo[1,5-a]pyridin-6-yl)-1,3-dihydro-2H-benzo[d]imidazol-2-one]",2.86
15,"COc1cc(-c2cc3[nH]c(=O)n([C@@H]4CCCN(CC5CCCC5)C4)c3cc2C(C)C)cn2ncnc12 [Example 211, (R)-1-(1-(cyclopentylmethyl)piperidin-3-yl)-6-isopropyl-5-(8-methoxy-[1,2,4]triazolo[1,5-a]pyridin-6-yl)-1,3-dihydro-2H-benzo[d]imidazol-2-one]",0.05
16,"CCc1cc2c(cc1-c1cc(OC)c3ncnn3c1)[nH]c(=O)n2[C@@H]1CCCN(C2CCOC2)C1 (stereo partly drawn) [Example 212, 6-ethyl-5-(8-methoxy-[1,2,4]triazolo[1,5-a]pyridin-6-yl)-1-((3R)-1-(tetrahydrofuran-3-yl)piperidin-3-yl)-1,3-dihydro-2H-benzo[d]imidazol-2-one]",25.4
17,"CCc1cc2c(cc1-c1cc(OC)c3ncnn3c1)[nH]c(=O)n2[C@@H]1CCCN(C2CCOC2)C1 (stereo partly drawn) [Example 213, 6-ethyl-5-(8-methoxy-[1,2,4]triazolo[1,5-a]pyridin-6-yl)-1-((3R)-1-(tetrahydrofuran-3-yl)piperidin-3-yl)-1,3-dihydro-2H-benzo[d]imidazol-2-one]",37.3
18,"CCc1cc2c(cc1-c1cc(OC)c3ncnn3c1)[nH]c(=O)n2[C@@H]1CCCN(C2CCCOC2)C1 (stereo partly drawn) [Example 215, 6-ethyl-5-(8-methoxy-[1,2,4]triazolo[1,5-a]pyridin-6-yl)-1-((3R)-1-(tetrahydro-2H-pyran-3-yl)piperidin-3-yl)-1,3-dihydro-2H-benzo[d]imidazol-2-one]",13.4
19,"COc1cc(-c2cc3[nH]c(=O)n([C@@H]4CCCN(C5CCOC5)C4)c3cc2C(C)C)cn2ncnc12 (stereo partly drawn) [Example 216, 6-isopropyl-5-(8-methoxy-[1,2,4]triazolo[1,5-a]pyridin-6-yl)-1-((3R)-1-(tetrahydrofuran-3-yl)piperidin-3-yl)-1,3-dihydro-2H-benzo[d]imidazol-2-one]",14.6
20,"COc1cc(-c2cc3[nH]c(=O)n([C@@H]4CCCN(C5CCOC5)C4)c3cc2C(C)C)cn2ncnc12 (stereo partly drawn) [Example 217, 6-isopropyl-5-(8-methoxy-[1,2,4]triazolo[1,5-a]pyridin-6-yl)-1-((3R)-1-(tetrahydrofuran-3-yl)piperidin-3-yl)-1,3-dihydro-2H-benzo[d]imidazol-2-one]",11.2
21,"COc1cc(-c2cc3[nH]c(=O)n([C@H]4CCCN(CC(N)=O)C4)c3cc2C(C)C)cn2ncnc12 [Example 220, (S)-2-(3-(6-isopropyl-5-(8-methoxy-[1,2,4]triazolo[1,5-a]pyridin-6-yl)-2-oxo-2,3-dihydro-1H-benzo[d]imidazol-1-yl)piperidin-1-yl)acetamide]",244
22,"COCCN1CCC[C@H](n2c(=O)[nH]c3cc(-c4cc(OC)c5ncnn5c4)c(C(C)C)cc32)C1 [Example 221, (S)-6-isopropyl-5-(8-methoxy-[1,2,4]triazolo[1,5-a]pyridin-6-yl)-1-(1-(2-methoxyethyl)piperidin-3-yl)-1,3-dihydro-2H-benzo[d]imidazol-2-one]",11.3
23,"COc1cc(-c2cc3[nH]c(=O)n([C@H]4CCCN(CCS(C)(=O)=O)C4)c3cc2C(C)C)cn2ncnc12 [Example 222, (S)-6-isopropyl-5-(8-methoxy-[1,2,4]triazolo[1,5-a]pyridin-6-yl)-1-(1-(2-(methylsulfonyl)ethyl)piperidin-3-yl)-1,3-dihydro-2H-benzo[d]imidazol-2-one]",138
